Experimental data from patent US8039430B2 (University of Wollongong, priority 2005, dated 2011).

How the values were obtained:
[1] = test system: Staphylococcus aureus (ATCC 6538P); assay: Antibacterial assay (MIC), Staphylococcus aureus ATCC 6538P, Luria Broth, Example 1; format: cell-based; details: Staphylococcus aureus, ATCC6538P; Example 1 compounds; S. aureus ATCC 6538P; 24 hrs, 37° C.; range if at least two of three values fell within it; read-out: Sa (minimum inhibitory concentration)
Description: (§1) Antibacterial Assay Method for Staphylococcus aureus (ATCC 6538P) and Enterococcus faecium
Staphylococcus aureus (ATCC 6538P)
(§2) Compounds are accurately weighed out (between approx. 1-2 mg) and dissolved in either 10% methanol/water (v/v) or 100% DMSO to a final stock concentration of 5 mg/ml.
(§3) Compounds are then diluted 1/10 in H2O to a test conc of 500 ug/ml ready for immediate use, or storage at −20° C.
(§4) Grow up an o/n starter culture of Staphylococcus aureus and each VRE strain by diluting previous culture (stored at 4° C.) 1/1000 into −50 mls Luria Broth (LB) for S. aureus or Enterococossel Broth (EB) for the VRE strains.
(§5) Incubate o/n at 37° C.+shaking. • A glycerol stock (0.6 mls bacterial culture, 0.3 mls glycerol) of each strain is kept at −80° C. if needed. Assay Set Up:
(§6) In a 96well round bottom plate add 50 ul LB/well for the S. aureus plate and add 50 ul EB/well for the VRE plates.
(§7) Add 50 ul of compound dilution (500 ug/ml test conc) to each of three top row wells (ie: tested in triplicate) and dilute 1 in 2 from the top row to the bottom row.
(§8) After the compound dilution, add to each well 50 ul of a 1/1000 dilution of the appropriate overnight bacterial culture, either S. aureus or the different VRE strains.
(§9) Plates are incubated at 37° C. on a slowly rotating plate incubator. • test concentrations are (in ug/ml) 125, 62.5, 31.25, 15.6, 7.8, 3.9, 1.9, 0.98 • final DMSO concentration in the first row of wells of the assay is 2.5% • Vancomycin is included in the assay (in triplicate) at a starting test concentration of 5 ug/ml for S. aureus and 125 ug/ml for the VRE strains Reading Results of Assay:
(§10) After incubation for 24 hrs the plates are removed and read. Inhibition of bacterial growth is indicated by lack of bacterial pellet or a clear well. In the VRE plates bacterial growth is indicated by black coloured media (EB) as well as a bacterial pellet.
(§11) Untreated control wells are included in the assay to check they all contain bacterial pellets. Uninoculated untreated control wells are included to check they all contain clear medium.
(§12) The plates are analysed for MIC and the results tabulated.

[2] = test system: Staphylococcus aureus Mu50 (ATCC 700699); assay: MIC determination by micro-broth dilution (NCCLS), S. aureus Mu50; format: cell-based; details: ATCC700699, Example 1 compounds, Mueller Hinton II broth, 24 hours, 37° C.
Description: (§13) Antibacterial Assay Methods for Staphylococcus aureus Mu50 (ATCC 700699), Methicillin-Resistant Staphylococcus aureus (ATCC 43300), Multi-Drug-Resistant Staphylococcus epidermidis (ATCC 700562) Compounds
(§14) The compounds were stored at room temperature in the dark prior to use. Each compound was solubilized in DMSO to a final concentration of 40 mg/mL. The stock material was diluted to a concentration equivalent to two times the final in-well high test concentration (100 μg/mL for all experimental compounds) in Mueller Hinton II broth. […] Vancomycin and oxacillin were obtained from Sigma Aldrich Chemical Company and were used as positive and/or negative control compounds in the reported assays at high test concentrations of 100, 25 and 100 μg/mL respectively.
(§15) The bacterial strains employed in these assays were obtained from the American Type Culture Collection (ATCC). All of the bacterial strains were propagated as recommended by the ATCC. Each strain was stored as a frozen glycerol stock at −80° C. and a 10 μL loop of the frozen stocks was used to inoculate each culture for these assays.
(§16) The susceptibility of the above microorganisms to the test compounds was evaluated by determining the MIC of each compound using micro-broth dilution analysis according to the methods recommended by the NCCLS. All microbial strains were obtained from American Type Culture Collections (ATCC) and cultured according to the suppliers recommendations. Evaluation of the susceptibility of each organism against the test compounds included a positive control antibiotics Vancomycin and Oxacillin. For each organism, a standardized inoculum was prepared by direct suspension of freshly plated colonies in Mueller Hinton II broth to an optical density 625 nm (OD625) of 0.1 (equivalent to a 0.5 McFarland standard). The suspended inoculum was diluted to a concentration of approximately 1×10^6 colony forming units per milliliter (CFU/mL) and 100 μL placed into triplicate wells of a 96-well plate containing 100 μL of test compound serially diluted 2-fold in Mueller Hinton II broth. One hundred microliters of the inoculum was also added to triplicate wells containing 100 μL of two-fold serial dilutions of a positive control antibiotic and to wells containing 100 μL of media only. This dilution scheme yielded final concentrations for each microbial organism estimated to be 5×10^5 CFU/mL (verified by colony quantification on appropriate agar plates, data is not presented). Test compound concentrations ranged from a high-test of 1:2 (100 μg/mL)) to a low test of 1:2048 (0.1 μg/mL) using a two-fold dilution scheme. The plates were incubated for 24 hours at 37° C., and the microbial growth at each concentration of compound was determined by measuring the optical density at 625 nm on a Molecular Devices SpectraMax Plus-384 plate reader.
(§17) Microsoft Excel 2003 was used to analyze and graph the data, and the MIC (minimal inhibitory concentration) was determined from the resulting data.

[3] = test system: Methicillin-Resistant Staphylococcus aureus (ATCC 43300); assay: MIC determination by micro-broth dilution (NCCLS), methicillin-resistant S. aureus; format: cell-based; details: ATCC43300, Example 1 compounds, Mueller Hinton II broth, 24 hours, 37° C.
Description: as §13, §14, §15, §16, §17

[4] = test system: #987 E. faecium van B ST39; assay: Antibacterial assay (MIC), VRE strain #987, Enterococossel Broth, Example 1; format: cell-based, Enterococcus faecium; details: Enterococcus faecium; Example 1 compounds; VRE #987 E. faecium van B; 24 hrs, 37° C.; read-out: 987 (minimum inhibitory concentration)
Description: as §1
(§18) #820 E. faecium van A ST17 #987 E. faecium van B ST39
as §2, §3, §4, §5, §6, §7, §8, §9, §10, §11, §12

[5] = test system: #243 E. faecium van B ST17; assay: Antibacterial assay (MIC), VRE strain #243, Enterococossel Broth, Example 1; format: cell-based, Enterococcus faecium; details: Enterococcus faecium; Example 1 compounds; VRE #243 E. faecium van B; 24 hrs, 37° C.; read-out: 243 (minimum inhibitory concentration)
Description: as §1
(§19) VRE strains: #243 E. faecium van B ST17 #449 E. faecium van B ST17
as §2, §3, §4, §5, §6, §7, §8, §9, §10, §11, §12

[6] = test system: #820 E. faecium van A ST17; assay: Antibacterial assay (MIC), VRE strain #820, Enterococossel Broth, Example 1; format: cell-based, Enterococcus faecium; details: Enterococcus faecium; Example 1 compounds; VRE #820 E. faecium van A; 24 hrs, 37° C.; read-out: 820 (minimum inhibitory concentration)
Description: as §1, §18, §2, §3, §4, §5, §6, §7, §8, §9, §10, §11, §12

[7] = test system: #449 E. faecium van B ST17; assay: Antibacterial assay (MIC), VRE strain #449, Enterococossel Broth, Example 1; format: cell-based, Enterococcus faecium; details: Enterococcus faecium; Example 1 compounds; VRE #449 E. faecium van B; 24 hrs, 37° C.; read-out: 449 (minimum inhibitory concentration)
Description: as §1, §19, §2, §3, §4, §5, §6, §7, §8, §9, §10, §11, §12

[8] = test system: Multi-Drug-Resistant Staphylococcus epidermidis (ATCC 700562); assay: MIC determination by micro-broth dilution (NCCLS), multi-drug-resistant S. epidermidis; format: cell-based; details: ATCC700562, Example 1 compounds, Mueller Hinton II broth, 24 hours, 37° C.
Description: as §13, §14, §15, §16, §17

## Cl.Cl.N=C(N)NCCC[C@@H](NC(=O)CCCOc1ccc2ccccc2c1-c1c(OCCCC(=O)N[C@H](CCCNC(=N)N)C(=O)OCc2ccccc2)ccc2ccccc12)C(=O)OCc1ccccc1 (atropisomer, axis not shown) [Compound 31]
[1]
  MIC: 0.99 to 15.6 µg/mL
[2]
  MIC: 15.7 to 62.5 µg/mL
[3]
  MIC: 0.99 to 15.6 µg/mL
[4]
  MIC: 15.7 to 62.5 µg/mL
[5]
  MIC: 15.7 to 62.5 µg/mL
[6]
  MIC: 15.7 to 62.5 µg/mL
[7]
  MIC: 15.7 to 62.5 µg/mL
[8]
  MIC: 0.99 to 15.6 µg/mL

## CC(C)CCOc1ccc2ccccc2c1-c1c(OCC(=O)N[C@H](CCCCN)C(=O)N[C@H](CCCNC(=N)N)C(=O)N[C@@H](CC(C)C)c2ncc(-c3ccccc3)o2)ccc2ccccc12.Cl.Cl (atropisomer, axis not shown) [Compound 16]
[1]
  MIC: 0.99 to 15.6 µg/mL
[2]
  MIC: 0.99 to 15.6 µg/mL
[3]
  MIC: 0.99 to 15.6 µg/mL
[4]
  MIC: > 62.6 µg/mL
[5]
  MIC: > 62.6 µg/mL
[6]
  MIC: > 62.6 µg/mL
[7]
  MIC: > 62.6 µg/mL
[8]
  MIC: 0.99 to 15.6 µg/mL

## CC(C)CCOc1ccc2ccccc2c1-c1c(OCCNC(=O)[C@@H](CCCCN)NC(=O)[C@@H](CCCNC(=N)N)NC(=O)[C@@H](CC(C)C)NC(=O)Cc2ccccc2)ccc2ccccc12.Cl.Cl (atropisomer, axis not shown) [Compound 30]
[1]
  MIC: 0.99 to 15.6 µg/mL
[2]
  MIC: 0.99 to 15.6 µg/mL
[3]
  MIC: 0.99 to 15.6 µg/mL
[4]
  MIC: > 62.6 µg/mL
[5]
  MIC: > 62.6 µg/mL
[6]
  MIC: > 62.6 µg/mL
[7]
  MIC: > 62.6 µg/mL
[8]
  MIC: 0.99 to 15.6 µg/mL

## CC(C)CCOc1ccc2ccccc2c1-c1c(OCC(=O)N[C@H](CCCCN)C(=O)N[C@H](CCCNC(=N)N)C(=O)N[C@@H](CC(C)C)c2nc(S(=O)(=O)O)c(-c3ccccc3)o2)ccc2ccccc12.Cl.Cl (atropisomer, axis not shown) [Compound 17]
[1]
  MIC: < 0.98 µg/mL
[2]
  MIC: 0.99 to 15.6 µg/mL
[3]
  MIC: 0.99 to 15.6 µg/mL
[4]
  MIC: 15.7 to 62.5 µg/mL
[5]
  MIC: 15.7 to 62.5 µg/mL
[6]
  MIC: 15.7 to 62.5 µg/mL
[7]
  MIC: 15.7 to 62.5 µg/mL
[8]
  MIC: 0.99 to 15.6 µg/mL

## CC(C)CCOc1ccc2ccccc2c1-c1c(OCC(=O)N[C@H](CCCCN)C(=O)N[C@H](CCCNC(=N)N)C(=O)NC2(C(=O)OCc3ccccc3)CCCCC2)ccc2ccccc12.Cl.Cl (atropisomer, axis not shown) [Compound 21]
[1]
  MIC: 0.99 to 15.6 µg/mL
[2]
  MIC: 0.99 to 15.6 µg/mL
[3]
  MIC: 0.99 to 15.6 µg/mL
[4]
  MIC: 15.7 to 62.5 µg/mL
[5]
  MIC: 15.7 to 62.5 µg/mL
[6]
  MIC: 15.7 to 62.5 µg/mL
[7]
  MIC: 15.7 to 62.5 µg/mL
[8]
  MIC: 0.99 to 15.6 µg/mL

## CC(C)CCOc1ccc2ccccc2c1-c1c(OCC(=O)N[C@H](CCCCN)C(=O)N[C@H](CCCNC(=N)N)C(=O)N[C@H](COCc2ccccc2)CC(C)C)ccc2ccccc12.Cl.Cl (atropisomer, axis not shown) [Compound 15]
[1]
  MIC: 0.99 to 15.6 µg/mL
[2]
  MIC: 0.99 to 15.6 µg/mL
[3]
  MIC: 0.99 to 15.6 µg/mL
[4]
  MIC: 15.7 to 62.5 µg/mL
[5]
  MIC: 15.7 to 62.5 µg/mL
[6]
  MIC: 15.7 to 62.5 µg/mL
[7]
  MIC: 15.7 to 62.5 µg/mL
[8]
  MIC: 0.99 to 15.6 µg/mL

## CC(C)CCOc1ccc2ccccc2c1-c1c(OCC(=O)N[C@H](CCCCN)C(=O)N[C@H](CCCNC(=N)N)C(=O)N[C@@H](CC(C)C)C(=O)OCc2ccccc2)ccc2ccccc12.Cl.Cl (atropisomer, axis not shown) [Compound 1]
[1]
  MIC: 0.99 to 15.6 µg/mL
[2]
  MIC: 0.99 to 15.6 µg/mL
[3]
  MIC: 0.99 to 15.6 µg/mL
[4]
  MIC: 15.7 to 62.5 µg/mL
[5]
  MIC: 15.7 to 62.5 µg/mL
[6]
  MIC: 0.99 to 15.6 µg/mL
[7]
  MIC: 15.7 to 62.5 µg/mL
[8]
  MIC: 0.99 to 15.6 µg/mL
